Experiments:
PMN infiltration = assay: Zymosan A-induced peritonitis; type: in vivo, FVB mice; details: for inhibition of PMN/leukocyte infiltration: i.v. bolus before zymosan A, lavage at 2 h
Procedure: (§1) FIG. 5 depicts Bioimpact properties of omega-3-derived Resolvins. A) Human glioma cells: Inhibition of TNF-stimulated IL-1β transcripts DBTRG-05MG cells 10^6/ml were stimulated with 50 ng/ml of human recombinant TNFα for 16 hours to induce expression of IL-1β transcripts. Concentration dependence with COX-2 products: 17-HDHA (n), 13-HDHA (l)and di-/tri-HDHA (n). […] (insets) Results are representative of RT-PCR gels of MG cells exposed to 100 nM of 13-HDHA or 17-HDHA and graphed after normalization of the IL-1β transcripts using GAPDH. B) Influence of eicosanoids and docosanoids on fMLP-induced neutrophil migration across micovascular endothelial monolayers Neutrophils (1×10^6 cells/monolayer) were exposed to vehicle containing buffer, or indicated concentrations of aspirin-triggered LXA4 analog (closed diamonds) 5S,12,18R-triHEPE (closed squares), 17R-HDHA (closed circles) or 13-HDHA (closed triangles) for 15 minutes at 37° C. Neutrophils were then layered on HMVEC monolayers and stimulated to transmigrate by a 10^−8 M fMLP gradient for 1 hr at 37° C. Transmigration was assessed by quantitation of the neutrophil marker myeloperoxidase. Results are presented as mean±SEM number of PMN (n=8-12 monolayers per condition). C) Reduction of PMN in murine peritonitis and skin pouch peritonitis: Compounds (100 ng in 120 μL sterile saline) were injected by intravenous bolus injection into the mouse tail vein and followed by 1 ml zymosan A (1 mg/ml) into the peritoneum. Peritoneal lavages were collected (2 h) and cell types were enumerated.
Human PMN transendothelial migration was quantitated by monitoring myeloperoxidase (MPO) an azurophilic granule marker as in (34, 37). Inflammatory exudates were initiated with intrapouch injection of recombinant mouse TNFα (100 ng/pouch; R&D Systems) into dorsal air pouches (10) of 6-8 wk male FVB mice fed laboratory rodent diet 5001 (Lab Diet, Purina Mills) containing less than 0.25% arachidonic acid, 1.49% EPA and 1.86% DHA followed by ASA (500 μg) at 3.5 h and 300 μg DHA/pouch at 4 h post-TNFα injection. At 6 h (within the resolution phase), pouches were lavaged (3 ml saline) and exudate cells were enumerated Inhibition of TNFα stimulated (100 ng/pouch) PMN infiltration with i.v. tail injection of either 17R-HDHA (as prepared with COX-2 vide infra), 5S,12,18R-HEPE, or a 15-epi-LXA4 analog were determined with pouch lavages taken at 4 h. Peritonitis was performed using 6 to 8-week-old FVB male mice (Charles River Laboratories) fed laboratory Rodent Diet 5001 (Purina Mills) that were anesthetized with isoflurane, and compounds to be tested (125 μl) were administered intravenously. Zymosan A in 1 ml (1 mg/ml) was injected ˜1-1.5 min later in the peritoneum. Each test compound (100 ng/incubation, i.e. 17R-HDHA in ethanol) or vehicle alone was suspended in ˜5 μl and mixed in sterile saline 120 μl. Two hours after the intraperitoneal injections, and in accordance with the Harvard Medical Area Standing Committee on Animals protocol #02570, mice were euthanized and peritoneal lavages rapidly collected for enumeration.
Peritonitis was induced in 6 to 8 week old male FVB mice by peritoneal injection of 1 mg Zymosan A. Compounds 4,17S and 10,17S-diHDHA were injected by intravenous bolus injection, 1.5 minutes before Zymosan A treatment. Two hours after induction of peritonitis, rapid peritoneal lavages were collected and cell type enumeration was performed.

[1] = test system: IL-1β transcripts in DBTRG-05MG cells; assay: Inhibition of TNF-stimulated IL-1β transcripts (RT-PCR); type: cell-based, human; details: 50 ng/ml TNFα, 16 h; read-out: IC50, inhibition of TNFα-induced IL-1β transcripts / cytokine expression
Procedure: as §1, with “C) Reduction of PMN in murine peritonitis and skin pouch peritonitis: Compounds (100 ng in 120 μL sterile saline) were injected by intravenous bolus injection into the mouse tail vein and followed by 1 ml zymosan A (1 mg/ml) into the peritoneum. Peritoneal lavages were collected (2 h) and cell types were enumerated.” left out
Human glioma cells DBTRG-05MG cells (ATCC) were cultured as recommended by ATCC. […] Results were analyzed using the NIH Image program (http://rsb.info.nih.gov/nih-image).

human recombinant COX-2 = biological target: T1, human recombinant COX-2 (Homo sapiens, UniProt P35354); assay: Impact of NSAIDs on COX-2 conversion of DHA; type: biochemical
T1 construct: made in house; host or cells: Sf9 insect cells (microsomal fractions)
T1 sequence (P35354 18-604): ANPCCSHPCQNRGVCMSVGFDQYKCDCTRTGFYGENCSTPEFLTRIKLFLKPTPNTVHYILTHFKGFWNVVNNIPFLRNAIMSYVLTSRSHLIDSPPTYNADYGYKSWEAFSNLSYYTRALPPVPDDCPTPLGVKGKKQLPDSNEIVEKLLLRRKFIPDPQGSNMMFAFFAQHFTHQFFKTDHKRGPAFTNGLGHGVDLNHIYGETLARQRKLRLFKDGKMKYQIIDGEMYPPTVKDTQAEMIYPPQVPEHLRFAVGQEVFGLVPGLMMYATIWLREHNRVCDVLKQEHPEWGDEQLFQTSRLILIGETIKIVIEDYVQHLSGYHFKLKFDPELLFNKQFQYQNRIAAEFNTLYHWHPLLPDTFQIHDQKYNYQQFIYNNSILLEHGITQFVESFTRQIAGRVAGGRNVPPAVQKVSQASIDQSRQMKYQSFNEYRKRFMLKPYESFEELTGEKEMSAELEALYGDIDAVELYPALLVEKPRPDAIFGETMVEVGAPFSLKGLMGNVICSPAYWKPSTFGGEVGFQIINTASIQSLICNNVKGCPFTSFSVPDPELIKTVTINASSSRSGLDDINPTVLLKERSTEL
Procedure: Human recombinant COX-2 was overexpressed in Sf9 insect cells (ATCC). The microsomal fractions (˜8 μl) were suspended in Tris (100 mM, pH 8.0) as in (35). ASA was incubated (˜2 mM, 37° C., 30 min) with COX-2 before addition of DHA (10 μM), or in some experiments [1-^14C]-labeled DHA (from American Radiolabeled Chemicals, Inc.), and conversions were monitored in parallel using [1^−14C]-labeled C20:4 (with ASA) (as in FIG. 2; also see text).
Incubations were extracted with deuterium-labeled internal standards (15-HETE and C20:4) for LC-MS-MS analysis as in (33) using a Finnigan LCQ liquid chromatography ion trap tandem mass spectrometer (San Jose, Calif.) equipped with a LUNA C18-2 (150×2 mm×5 μm or 100×2 mm×5 μm) column and a rapid spectra scanning UV diode array detector that monitored UV absorbance ˜0.2 min prior to samples entering the MS-MS. All intact cell incubations and in vivo exudates were stopped with 2 ml cold methanol and kept at −80° C. for >30 minutes. Samples were extracted using C18 solid phase extraction and analyzed using GC-MS (see Table 2) (Hewlett-Packard), thin layer chromatography or tandem liquid chromatography-mass spectrometry (LC-MS-MS). Also, a Chiralcel OB-H column (4.6×250 mm; J. T. Baker) was used to determine R and S alcohol configurations of monohydroxy-PUFA using isocratic mobile phase (hexane:isopropanol; 97.5:2.5, vol:vol, with a 0.6 ml/min flow rate). Detailed procedures for isolation, quantitation and structural determination of lipid-derived mediators were recently reported (36) and used here essentially as reported for elucidation of novel products.
Results are the mean±SEM, n=3. Products were extracted, identified, and quantitated using deuterium internal standards and LC-MS-MS (see Methods).

leukocyte infiltration = assay: TNFα-induced dorsal air pouch; type: in vivo, FVB mice; details: FIG. 5C
[2] = test system: airway leukocyte accumulation; assay: OVA sensitization and aerosol challenge: lung histology and BAL leukocytes; type: in vivo
Procedure: To determine if PD1 and Resolvin E1 had properties of a counter-regulatory mediator during airway inflammation, physiologically relevant quantities (2, 20 or 200 ng) were administered by intravenous injection to allergen sensitized animals just prior (30 min) to aerosol challenge on 4 consecutive days. […] In conjunction with decreased airway inflammation, levels of the counter-regulatory eicosanoid LXA4 were also […] in the presence of PD1 (data not shown).
Five to seven week old male FvB mice (Charles River Laboratories, Wilmington, Mass.) were housed in isolation cages under viral antibody-free conditions. Mice were fed a standard diet (Laboratory Rodent Diet 5001, PMI Nutrition International, Richmond, Ind.) that contained no less than 4.5% total fat with 0.26% omega-3 fatty acids and <0.01% C20:4. After Harvard Medical Area IRB approval (Protocol #02570), mice were sensitized with intraperitoneal injections of ovalbumin (OVA) (Grade III; Sigma Chemical Co., St. Louis, Mo.) (10 μg) plus 1 mg aluminum hydroxide (ALUM) (J. T. Baker Chemical Co.; Phillipsburg, N.J.) as adjuvant in 0.2 ml PBS on days 0 and 7. On days 14, 15, 16 and 17, the mice received PD1 (2, 20 or 200 ng), Resolvin E1 (200 ng) (products of biogenic synthesis (Hong, Gronert et al. 2003)), or PBS with 1.6 mM CaCl2 and 1.6 mM MgCl2 (0.1 ml) by intravenous injection 30 min prior to an aerosol challenge containing either PBS or 6% OVA for 25 min/day. On day 18, 24 h after the last aerosol challenge, airway responsiveness to aerosolized methacholine (0, 20, 50 and 75 mg, 10 sec) was measured, bilateral bronchoalveolar lavage (BAL) (2 aliquots of 1 ml PBS plus 0.6 mM EDTA) was performed or tissues were harvested for histological analysis. Lung resistance was measured using a Flexivent ventilator (SciReq, Montreal, Quebec). Resistance was measured as a function of time for each animal, and peak and average values for each dose of methacholine were recorded. No BAL or histological analysis was performed on those animals undergoing airway hyper-responsiveness or lipid extraction studies.
Tissue morphometry was performed by a member (K. Haley) of the Lung Histopathology Core Laboratory at Brigham and Women's Hospital who was blinded to the experimental conditions prior to histological analyses. Three fields per slide were examined at 200× magnification for vessels, large airways and alveoli with EOS counted at 400× magnification in randomly assigned fields. Vessels were identified by perivascular smooth muscle, and large airways were identified by at least ½ their diameter either cuboidal or columnar epithelia. Measurement of inflammatory mediators was determined in cell-free BAL fluid (2000 g, 10 min) by sensitive and specific ELISAs, in tandem, for interleukin-5 (IL-5), IL-12, IL-13, PGD2 (R&D Systems, Minneapolis, Minn.), cysteinyl LTs, (Cayman Chemical Co, Ann Arbor, Mich.), and LXA4 (Neogen, Lexington, Ky.). Cells in BALF were resuspended in PBS, enumerated by hemocytometer, and concentrated onto microscope slides by cytocentrifuge (STATspin) (265 g). Cells were stained with a Wright-Giemsa stain (Sigma Chemical Co.) to determine leukocyte differentials (after counting ≧200 cells).

CCC(O)/C=C/C=C\C/C=C\C/C=C\C=C\[C@@H](O)CCCC(=O)O (mixture of isomers) [5S,18(+/−)-diHEPA]
potency relative to comparator at equal dose (PMN infiltration; PMN/leukocyte infiltration, FIG. 16 and FIG. 18): equipotent to Resolvin E1 | inhibition of PMN/leukocyte infiltration (PMN infiltration): downregulation of PMN infiltration | inhibition of PMN/leukocyte infiltration (PMN infiltration; listed as 5S,18(+/−)-diHEPE): reduction of neutrophil infiltration

CC/C=C\C[C@H](O)/C=C/C=C\C=C\[C@@H](O)C/C=C\CC#CCCC(=O)O [4,5-dehydro 10,17S-dihydroxy DHA]
inhibition of the PMN infiltration (PMN infiltration; 100 ng dose): 40%

CC/C=C\C[C@H](O)/C=C/C=C\CC(O)\C=C/C=C/C=C/[C@@H](O)CCC(=O)O (stereo partly drawn) [4S,11,17R-triHDHA, 4S,11,17S,-trihydroxy-docosa-5E,7E,9Z,13Z,15E,19Z-hexaenoic acid]
inhibition of PMN/leukocyte infiltration (PMN infiltration): potent inhibitor

CC/C=C\C[C@@H](O)/C=C/C=C\C/C=C\C=C\[C@@H](O)C/C=C\CCC(=O)O [7S,17R-diHDHA, 7S,17R-dihydroxy-docosa-4Z,8E,10Z,13Z,15E,19Z-hexaenoic acid]
inhibition of PMN/leukocyte infiltration (PMN infiltration): potent inhibitor

CC/C=C\C/C=C\C=C\C(O)C/C=C\C/C=C\C/C=C\CCC(=O)O (centres unmarked) [13-HDHA, 13-hydroxy-DHA]
IC50 [1]: ~0.05 nM

CC(=O)Nc1ccc(O)cc1 [Acetaminophen, acetaminophen]
% Increase of 17-HDHA (human recombinant COX-2; NSAID incubated 30 min with COX-2, ASA 2 mM, indomethacin 200 μM, acetaminophen 500 μM, NS398 100 μM, mean±SEM, n=3): 0.0% | inhibition at 500 µM (human recombinant COX-2; read-out: % Inhibition of 13-HDHA): 87.7 ± 4.3% | formation of 17R-HDHA from DHA by NSAID-treated COX-2 (human recombinant COX-2; recombinant COX-2 incubations): did not give appreciable amounts of 17R-HDHA

CC[C@@H](O)/C=C/C=C\C[C@@H](O)/C=C/C=C/C=C\[C@@H](O)CCCC(=O)O [EPA-derived 5,12,18R series product]
prevention of leukocyte diapedesis and exudate formation relative to 15-epi-lipoxin A4 stable analog (leukocyte infiltration): as effective as a potent stable analog of 15-epi-lipoxin A4

CC[C@@H](O)/C=C/C=C\C[C@@H](O)/C=C/C=C/C=C\[C@@H](O)CCCC(=O)O [Resolvin E1, 5S,12R,18R-trihydroxy-6Z,8E,10E,14Z,16E-eicosapentaenoic acid]
inhibition of PMN/leukocyte infiltration (PMN infiltration): reduction of neutrophil infiltration | eosinophil and lymphs (FIG. 25) ([2]; 10,17-DT 20 ng and 200 ng, Resolvin E1 200 ng): reduction | total leukocytes, EOS and Lymphs in BAL fluid ([2]; PD1 2, 20 or 200 ng, Resolvin E1 200 ng i.v.): decreased
